According to paper PMC5924617 (European journal of medicinal chemistry, 2018):

Key:
ISG54 = experiment: poly; assay type: cell-based, human
ISG56 = experiment: poly; assay type: cell-based, human; conditions: for inhibition at 10 µM: Homo sapiens, read-out: Inhibitory rate (%) of ISG56 expression; for Inhibitory rate (%) of ISG56 expression: 10 μM compound, poly(I:C)-induced, hSAECs
IL-8 = experiment: poly; assay type: cell-based, human; conditions: for inhibition at 10 µM: Homo sapiens, read-out: Inhibitory rate (%) of IL-8 expression
Groβ = experiment: poly; assay type: cell-based, human; conditions: for inhibition at 10 µM: Homo sapiens, read-out: Inhibitory rate (%) of Groβ expression; for Inhibitory rate (%) of Groβ expression: 10 μM compound, poly(I:C)-induced, hSAECs
[1] = test system: innate immune genes including ISG54, ISG56, IL-8 and Groβ; experiment: poly; assay type: cell-based, human; conditions: for IC50: Homo sapiens, read-out: IC50 against all innate immune genes (range); for Inhibitory rates on immune genes' expression (all genes, text): 10 μM compound, ISG54, ISG56, IL-8, Groβ in hSAECs
[2] = In vivo pharmacokinetic profile in rats; conditions: PO 20 mg/kg
[3] = test system: various receptors and enzymes including kinases such as IKK; experiment: Eurofins Cerep panel assays, off-target effects; conditions: tested concentration 10 μM; Table S1
[4] = Daily administration over one month in mice, toxicity; conditions: compound-treated mice
[5] = 10 μM compound, poly(I:C)-induced, hSAECs

Compound: CCCc1cc(C(=O)Nc2ccc(S(=O)(=O)N3CCC[C@H]3C(=O)OC)cc2)no1 [Compound 11, Methyl ((4-(5-propylisoxazole-3-carboxamido)phenyl)sulfonyl)-L-prolinate]
- inhibition at 10 µM (ISG54; Homo sapiens, read-out: Inhibitory rate (%) of ISG54 expression): -62%
- inhibition at 10 µM (ISG56): -73%
- inhibition at 10 µM (IL-8): -61%
- inhibition at 10 µM (Groβ): -57%

Compound: 5-Chloro-2-methoxy-N-(2-oxo-1,2,3,4-tetrahydroquinolin-6-yl)benzenesulfonamide [Compound 26]
- Inhibitory rate (%) of ISG56 expression (ISG56): 56%
- Inhibitory rate (%) of Groβ expression (Groβ): 56%

Compound: Cc1cc(/N=N/c2ccc3c(c2)CCC(=O)N3)c(N)cc1O [Compound 28, (E)-6-((2-Amino-4-hydroxy-5-methylphenyl)diazenyl)-3,4-dihydroquinolin-2(1H)-one]
- IC50 [1]: 490 to 860 nM
- Oral bioavailability [2]: not favorable

Compound: Cc1cc(/N=N/c2ccc(S(=O)(=O)NC3CCCC3)cc2)c(N)cc1O [Compound 35, (E)-4-((2-Amino-4-hydroxy-5-methylphenyl)diazenyl)-N-cyclopentylbenzenesulfonamide]
- IC50 [1]: 490 to 860 nM
- Oral bioavailability [2]: not favorable
- Off-target effects [3]: No significant off-target effects
- Effects on hepatic, renal or pulmonary tissues, histological examination [4]: No discernable effects

Compound: Cc1cc(/N=N/c2ccc(N3CCS(=O)(=O)CC3)cc2)c(N)cc1O [Compound 33, (E)-4-(4-((2-Amino-4-hydroxy-5-methylphenyl)diazenyl)phenyl)thiomorpholine 1,1-dioxide]
- Inhibitory rates on immune genes' expression (all genes, text) [1]: inactive

Compound: O=C1CCc2cc(NS(=O)(=O)c3ccc([N+](=O)[O-])cc3)ccc2N1 [Compound 27, 4-Nitro-N-(2-oxo-1,2,3,4-tetrahydroquinolin-6-yl)benzenesulfonamide]
- inhibition at 10 µM (IL-8): -32%

Compound: Cc1sc2c(c1C)C(c1ccc(Cl)cc1)=N[C@@H](CC(=O)OC(C)(C)C)c1nnc(C)n1-2 [(+)-JQ1, reference compound]
- IC50 [1]: 1380 to 3850 nM

Compound: COC(=O)[C@@H]1CCCN1S(=O)(=O)c1ccc(NC(=O)c2ccc(C(F)(F)F)cc2)cc1 [Compound 14, Methyl ((4-(4-(trifluoromethyl)benzamido)phenyl)sulfonyl)-L-prolinate]
- Inhibitory rates on immune genes' expression (all genes, text) [1]: completely lost its activity

Compound: COC(=O)[C@@H]1CCCN1S(=O)(=O)c1ccc(NCc2ccc(O)cc2)cc1 [Compound 15, Methyl ((4-((4-hydroxybenzyl)amino)phenyl)sulfonyl)-L-prolinate]
- inhibition at 10 µM (ISG56): -17%
- inhibition at 10 µM (Groβ): -12%

Compound: Methyl ((4-(5-(furan-3-yl)isoxazole-3-carboxamido)phenyl)sulfonyl)-L-prolinate [Compound 12]
- Inhibitory rate (%) of ISG54 expression (ISG54; [5]): −114%
- Inhibitory rate (%) of ISG56 expression (ISG56): −93%
- Inhibitory rate (%) of IL-8 expression (IL-8; [5]): −86%
- Inhibitory rate (%) of Groβ expression (Groβ): −98%

Compound: COC(=O)[C@@H]1CCCN1S(=O)(=O)c1ccc(N(C(=O)c2ccc(F)cc2)C(=O)c2ccc(F)cc2)cc1 [Compound 13, Methyl ((4-(4-fluoro-N-(4-fluorobenzoyl)benzamido)phenyl)sulfonyl)-L-prolinate]
- Inhibitory rates on immune genes' expression (all genes, text) [1]: around 90%
